{"source": "patent US6458357B1", "about": "“Retro-inverso neurotrophic and analgesic peptides” (Myelos Corporation, priority 1997, dated 2002)", "molecules": {"B1": {"name": "saposin C: small heat-stable glycoprotein generated by proteolytic processing of prosaposin (protein, UniProt P07602 311-390, looked up)", "Saposin-C": "SDVYCEVCEFLVKEVTKLIDNNKTEKEILDAFDKMCSKLPKSLSEECQEVVDTYGSSILSILLEEVSPELVCSMLHLCSG", "modifications": "Saposin-C"}}, "key": {"[1]": {"conditions": "in vivo; cited from earlier work"}, "[2]": {"test_system": "neurite outgrowth", "conditions": "system not specified; cited from earlier work"}, "[3]": {"test_system": "choline acetyltransferase activity", "conditions": "neuroblastoma cells in vitro; cited from earlier work"}, "[4]": {"test_system": "mouse cerebellar explants", "conditions": "cited from earlier work"}, "[5]": {"test_system": "neuroblastoma cells", "conditions": "cited from earlier work"}, "[6]": {"test_system": "neuroblastoma cells", "conditions": "neuroblastoma cells in vitro; cited from earlier work"}, "[7]": {"experiment": "Integrity (intactness) of peptide D4 in organs by HPLC 60 minutes after injection", "format": "in vivo, rat", "experimental": "In another study, an aliquot of brain, liver, lung and kidney was taken 60 minutes after injection for HPLC analyses (Vydac C4 column) to determine the integrity (intactness) of the peptide in brain, blood and kidney. Peptide D4 was 95% intact in these organs, indicating the in vivo stability of this peptide after 60 minutes. The peak at 16 min. is intact D4; a breakdown product peak is evident at 4 min."}, "[8]": {"experiment": "Localization of 125I-labelled peptide D4 in organs after intramuscular injection", "description": "After 20 min., the rat was anesthetized, perfused with PBS and the organs removed and counted in a gamma counter."}, "[9]": {"test_system": "NS20Y neuroblastoma cells", "experiment": "NS20Y neuroblastoma neurite outgrowth assay", "format": "cell-based", "conditions": "for neurite outgrowth (neuritogenic activity): 0.5-8 ng/ml peptide, 24 hours, DMEM 0.5% FCS", "experimental": "NS20Y neuroblastoma cells were grown in DMEM containing 10% fetal calf serum (FCS). Cells were removed with trypsin and plated in 30 mm petri dishes onto glass coverslips. After 20-24 hours, the medium was replaced with 2 ml DMEM containing 0.5% FCS plus 0, 0.5, 1, 2, 4 or 8 ng/ml effector peptides. Cells were cultured for an additional 24 hours, washed with PBS and fixed with Bouin's solution (saturated aqueous picric acid/formalin/acetic acid 15:5:1) for 30 minutes. Fixative was removed with PBS and neurite outgrowth was scored under a phase contrast microscope. […] At least 200 cells were scored in different portions of each dish to determine the percentage of neurite bearing cells and assays were performed in duplicate.\nIncreased neurite outgrowth was evident using as little as 0.5 ng/ml peptide."}, "[10]": {"test_system": "newborn mouse cerebellar explants", "experiment": "Ex vivo myelination assay in newborn mouse cerebellar explants", "format": "cell-based", "conditions": "added on second day, observed for 22 days in culture; saposin C positive control 1-10 μg/ml", "experimental": "Newborn mouse cerebellar explants are prepared according to Satomi (Zool. Sci. 9:127-137, 1992). Neurite outgrowth and myelination are observed for 22 days in culture, during the period when the newborn mouse cerebellum normally undergoes neuronal differentiation and myelination begins. D2, D3, D4, D5 or another peptide including SEQ ID NO: 12 is added on the second day after preparation of the explants (three control and three treated explants) and outgrowth of neurites and myelination are assessed under a bright field microscope with a video camera. Saposin C is used as a positive control at a concentration of between about 1 and 10 μg/ml."}, "[11]": {"test_system": "NS20Y neuroblastoma cells", "experiment": "Cell death assay, trypan blue staining of NS20Y cells in low serum", "format": "cell-based", "conditions": "for reduction of the number of trypan blue-positive (dead) cells: NS20Y cells, 8 ng/ml peptide, 2 days in 0.5% fetal bovine serum; for prevention of cell death: neuroblastoma cells in culture", "experimental": "NS20Y cells were plated as described in Example 1 and grown on glass coverslips in 0.5% fetal bovine serum for 2 days in the presence or absence of 8 ng/ml effector peptides. Media was removed and 0.2% trypan blue in PBS was added to each well. Blue-staining dead cells were scored as a percentage of the total on an inverted microscope, counting 400 cells in four areas of each well. The average error of duplicates was ±5%."}}, "note": "“Also recorded” adds a separate entry of the source. Where a SMILES comes first, the peptide text is derived from it. Where no end group is shown, it is not given here. [ ]: non-standard residue; d: D form."}
{"molecule": "18-mer: YKEVTKLIDNNKTEKEIL; SEQ ID NO: 2; within the active 22-mer of saposin C, V replaced by Y (Homo Sapien)", "values": [{"measurement": "crossing of the blood-brain barrier", "setting": "[1]", "value": "crosses the blood brain barrier; also recorded: able to cross the blood-brain barrier"}, {"measurement": "neurite outgrowth", "setting": "[2]", "value": "promotes neurite outgrowth"}]}
{"molecule": "22-mer: CEFLVKEVTKLIDNNKTEKEIL; SEQ ID NO: 1; amino acids 8-29 of human saposin C (Homo Sapien)", "values": [{"measurement": "choline acetyltransferase activity", "setting": "[3]", "value": "stimulates choline acetyltransferase activity"}, {"measurement": "neurite outgrowth", "setting": "[4]", "value": "stimulates neurite outgrowth"}, {"measurement": "neurite outgrowth", "setting": "[5]", "value": "stimulates neurite outgrowth"}, {"measurement": "prevention of cell death", "setting": "[6]", "value": "prevented cell death"}]}
{"molecule": "CC(C)C[C@@H](NC(=O)[C@@H](CC(C)C)NC(=O)[C@@H](CC(=O)O)NC(=O)[C@@H](CC(N)=O)NC(=O)[C@@H](CC(N)=O)NC(=O)[C@@H](C)NC(=O)[C@H](NC(=O)[C@@H](CCC(=O)O)NC(=O)[C@@H](CCC(=O)O)NC(=O)[C@@H](CC(C)C)NC(=O)[C@@H](CC(C)C)NC(=O)[C@H](N)Cc1ccc(O)cc1)[C@H](C)O)C(=O)O", "note": "[peptide D4] (H-[dY][dL][dL][dE][dE][dT][dA][dN][dN][dD][dL][dL]-OH; N-terminus and C-terminus assumed)", "values": [{"measurement": "in vivo stability", "setting": "[7]; 60 minutes after injection", "value": "stable in vivo"}, {"measurement": "crossing of the blood brain barrier", "setting": "[7]; after intramuscular injection, rat", "value": "crosses the blood brain barrier in amounts sufficient to exert a therapeutic effect"}, {"measurement": "presence of peptide in the brain", "setting": "[8]; after intramuscular injection into a rat", "value": "significant amounts"}, {"measurement": "concentration in brain relative to required neurotrophic dose for neural cells determined in vitro", "setting": "[8]; brain, 20 min after 200 μg/kg intramuscular, rat", "value": "approximately 20 times"}]}
{"molecule": "D3: retro-inverso peptide YLEETANNDLLAT; SEQ ID NO: 11 ([dY][dL][dE][dE][dT][dA][dN][dN][dD][dL][dL][dA][dT]; also: retro-inverso)", "values": [{"measurement": "neurite outgrowth (neuritogenic activity)", "setting": "[9]", "value": "promoted neurite outgrowth in vitro"}, {"measurement": "stimulation of myelination", "setting": "[10]", "value": "to a similar extent as with saposin C"}]}
{"molecule": "TX14(A): TXLIDNNATEEILY, X=D-alanine; SEQ ID NO: 4; modified 15-mer of human saposin C (T[dA]LIDNNATEEILY) [TX…, X=D-alanine; modified 15-mer of human saposin C, reference compound]", "values": [{"measurement": "neurite outgrowth (neuritogenic activity)", "setting": "[9]", "value": "exhibited neuritogenic activity; also recorded: induced neurite outgrowth"}, {"measurement": "reduction of the number of trypan blue-positive (dead) cells", "setting": "[11]", "value": "about 50%"}, {"measurement": "prevention of cell death", "setting": "[11]", "value": "prevented cell death in neuroblastoma cells in culture to the same extent"}]}
{"molecule": "peptide D2: YLIEETANNDILAT, all D-amino acids; SEQ ID NO: 5; retro-inverted TX14(A) ([dY][dL][dI][dE][dE][dT][dA][dN][dN][dD][dI][dL][dA][dT]; also: retro-inverted)", "values": [{"measurement": "neurite outgrowth activity compared with TX14(A)", "setting": "[9]", "value": "slightly more active that TX14(A); also recorded: slightly more effective than TX14(A)"}, {"measurement": "neurite outgrowth (neuritogenic activity)", "setting": "[9]", "value": "exhibited neuritogenic activity; also recorded: induced neurite outgrowth"}, {"measurement": "stimulation of myelination", "setting": "[10]", "value": "to a similar extent as with saposin C"}, {"measurement": "reduction of the number of trypan blue-positive (dead) cells", "setting": "[11]", "value": "about 50%"}, {"measurement": "prevention of cell death", "setting": "[11]", "value": "prevented cell death in neuroblastoma cells in culture to the same extent"}]}
{"molecule": "rat 14-mer: rat 14-mer derived from the saposin C active sequence, SELIINNATEELLY; SEQ ID NO: 6 (Homo Sapien) [reference compound]", "values": [{"measurement": "neurite outgrowth (neuritogenic activity)", "setting": "[9]", "value": "induced neurite outgrowth"}]}
{"molecule": "B1", "values": [{"measurement": "myelination", "setting": "[2]", "value": "promote increased myelination"}, {"measurement": "neurite outgrowth", "setting": "[2]", "value": "stimulate neurite outgrowth"}]}
